Measurements as given in patent US7235267B1, “Brain cell or nerve cell-protecting agents comprising medicinal ginseng” (priority 1999, dated 2007).
Where two headings read alike, the source gives them in different places.

Experiments:
Bcl-xL mRNA = assay: RT-PCR of Bcl-xL mRNA in cerebral cortex after intravenous ginsenoside Rb1; assay type: in vivo, rat; details: intravenous 60 μg/day; 4th and 6th hour after MCA permanent occlusion; vs sham and saline
Experimental: The present inventors investigated whether or not intravenous administration of low doses of ginsenoside Rb1 increases expression of Bcl-xL mRNA in brain tissues. For this purpose, for example, SH-SP rats (body weight 250-300 g), at the age of 12 weeks, were used. Immediately after permanent occlusion of the MCA in SH-SP rats under inhalation anesthesia, ginsenoside Rb1 dissolved in physiological saline was infused once intravenously (60 μg), and subsequently ginsenoside Rb1 was intravenously infused continuously at the dose of 60 μg/day. Control animals with MCA permanent occlusion and sham-operated animals received the same amount of physiological saline after MCA permanent occlusion.
Group 2 consists of animals with the same experimental conditions. Sham indicates sham-operated animals; Rb1(−) indicates animals with cerebral infarction administered with physiological saline; and Rb1(+) indicates animals with cerebral infarction administered intravenously with ginsenoside Rb1. At the 4th hour or the 6th hour after the sham operation and MCA permanent occlusion, animals were anesthetized with chloral hydrate, and the left cerebral cortex (i.e. the cerebral cortex on the side of MCA permanent occlusion) was dissected out and total RNA was prepared for RT-PCR. The mRNA of β-actin was used as the internal standard. […]

Bcl-xL = Bcl-xL expression in primary cultured myocardial cells (RT-PCR, immunoblotting); assay type: cell-based, rat
Experimental: Next, we have studied effect of ginsenoside Rb1 on the heart. For that purpose, for example, changes in the expression of Bcl-xL mRNA and Bcl-xL protein were examined with RT-PCR and immunoblotting, when primary cultured myocardial cells were cultured for 18 hours in the presence of ginsenoside Rb1. Myocardial cells were prepared as follows. The hearts of fetal rats at gestational day 17 were treated with trypsin EDTA to prepare dispersed cells, which were cultured for several days in DMEM containing 10% FCS (fetal calf serum). In RT-PCR, β-actin mRNA was used as the internal standard. In the immunoblotting, troponin T, a striated muscle-specific protein, was used as the internal standard, and expression of Bcl-xL protein was examined. In the immunoblotting, the same experiments were repeated 10 times by using different lots of myocardial cells, and Bcl-xL immunoreaction-positive bands were analyzed by densitometry and statistical analysis was performed.
Subsequently we studied the effectiveness of ginsenoside Rb1 on heart. For that purpose, for example, changes in the expressions of Bcl-xL mRNA and Bcl-xL protein were examined with the use of RT-PCR and immunoblotting, when the primary cultured myocardial cells were cultured for 18 hours in the presence of ginsenoside Rb1. Myocardial cells were prepared as follows. The hearts of fetal rats at gestational day 17 were treated with trypsin EDTA to prepare the dispersed cells, which were cultured for several days in DMEM containing 10% FCS (fetal calf serum). In RT-PCR, β-actin mRNA was used as the internal standard. In the immunoblotting, troponin T, a striated muscle-specific protein, was used as the internal standard, and expression of Bcl-xL protein was examined. In the immunoblotting, the same experiments were repeated 10 times by using different lots of myocardial cells, and Bcl-xL immunoreaction-positive bands were analyzed by densitometry and statistical analysis was performed.

[1] = tested on: rats with ischemia/reperfusion or permanent occlusion of the middle cerebral artery; details: cited from earlier work
[2] = low concentrations or low doses; cited from earlier work
[3] = intravenous administration (Saito et al. 1980); cited from earlier work

CC(C)=CCC[C@](C)(O[C@@H]1O[C@H](CO[C@@H]2O[C@H](CO)[C@@H](O)[C@H](O)[C@H]2O)[C@@H](O)[C@H](O)[C@H]1O)[C@H]1CC[C@]2(C)[C@@H]1[C@H](O)C[C@@H]1[C@@]3(C)CC[C@H](O[C@@H]4O[C@H](CO)[C@@H](O)[C@H](O)[C@H]4O[C@@H]4O[C@H](CO)[C@@H](O)[C@H](O)[C@H]4O)C(C)(C)[C@@H]3CC[C@]12C [ginsenoside Rb1]
expressions of Bcl-xL mRNA in the cerebral cortex (Bcl-xL mRNA): obviously increased
expression of Bcl-xL protein in myocardial cells (Bcl-xL; 1 fg/ml to 10^4 fg/ml, 18 hours, n=10): significantly enhanced
expression of Bcl-xL mRNA in myocardial cells (Bcl-xL; 1 fg/ml-100 fg/ml, 18 hours): obviously increased
concentrations increasing Bcl-xL mRNA in myocardial cells (Bcl-xL; FIG. 25): 1 to 100 fg/mL
effect on infarction ([1]; intravenous 10 mg/kg before permanent occlusion of the middle cerebral artery): absolutely no effect
reduction of size of the infarction vs control ([1]; intravenous 40 mg/kg before permanent occlusion of the middle cerebral artery): about 14%
reduction of infarction size vs control ([1]; single intravenous 10-40 mg/kg after the reperfusion): 12%-35%
reduction of infarction size vs control ([1]; single intravenous 10-40 mg/kg before ischemia, ischemia/reperfusion model): 20%-49%
bleeding tendency [2]: does not promote
LD50 [3]: approximately 448 mg/kg
